Biological target: T1, rabbit reticulocyte 15-LO (Oryctolagus cuniculus, UniProt P12530)
T1 construct: Fifteen-lipoxygenase was obtained from phenylhydrazine-treated rabbits and purified per the method of Rapoport; from tissue; host or cells: reticulocytes of phenylhydrazine-treated rabbits
T1 sequence (P12530 1-663): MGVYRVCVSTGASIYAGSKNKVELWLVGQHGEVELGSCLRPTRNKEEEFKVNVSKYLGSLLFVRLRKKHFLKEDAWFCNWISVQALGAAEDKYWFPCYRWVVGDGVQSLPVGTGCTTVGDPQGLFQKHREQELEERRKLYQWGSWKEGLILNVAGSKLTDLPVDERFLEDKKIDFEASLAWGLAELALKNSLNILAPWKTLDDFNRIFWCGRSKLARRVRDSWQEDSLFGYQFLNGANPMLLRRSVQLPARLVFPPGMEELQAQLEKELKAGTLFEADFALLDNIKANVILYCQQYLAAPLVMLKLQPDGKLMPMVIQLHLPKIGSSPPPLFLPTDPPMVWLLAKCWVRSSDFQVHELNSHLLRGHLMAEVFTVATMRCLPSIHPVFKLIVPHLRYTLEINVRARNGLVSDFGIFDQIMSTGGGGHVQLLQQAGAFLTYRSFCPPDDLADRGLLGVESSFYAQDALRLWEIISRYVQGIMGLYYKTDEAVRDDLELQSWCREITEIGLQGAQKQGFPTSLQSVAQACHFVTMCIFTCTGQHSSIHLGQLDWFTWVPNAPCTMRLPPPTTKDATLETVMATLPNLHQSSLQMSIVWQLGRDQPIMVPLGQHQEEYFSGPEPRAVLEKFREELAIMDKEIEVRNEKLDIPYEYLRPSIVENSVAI
Assay: Rabbit Reticulocyte 15-LO Assay (h15LO)
Assay type: biochemical
Settings: Table 2; for IC50: 2U rabbit reticulocyte 15-LO, 174 μM linoleic acid, 15 minutes at 4° C.; for h15LO, value given as bare %: concentration not given
Method: Rabbit Reticulocyte 15-LO Assay (h15LO)
The present 15-LO assay takes advantage of the ability of 15-LO to oxidize the fatty acid linoleic acid to the hydroperoxy fatty acid 13-(S)HPODE, resulting in the formation of a conjugated diene. The 15-LO inhibitors are incubated with 15-LO enzyme in the presence of linoleic acid substrate. The initial reaction is compared to an uninhibited (maximal) reaction to yield % inhibition. […] This prevents artificial nonenzyme lipid peroxidation and product breakdown in the sample. 13-HPODE is quantitated by comparing peak areas of individual samples with those from a standard curve generated using authentic 13-HODE. This assay is performed using 2U of rabbit reticulocyte 15-LO in the presence of 174 μM linoleic acid. The reaction is incubated for 15 minutes at 4° C. The total reaction volume is 100 μL in PBS containing 0.2% Na cholate.
Fifteen-lipoxygenase was obtained from phenylhydrazine-treated rabbits and purified per the method of Rapoport (Rapoport S. M., Schewe T., Wiesner R., et al. The lipoxygenase of reticulocytes. Purification, characterization, and biological dynamics of the lipoxygenase; its identity with the respiratory inhibitors of the reticulocyte. European Journal of Biochemistry, 1979;96:545-561). The following chemicals were purchased and used as received: linoleic acid (NUJCheck Prep), 13-HPODE (Biomol Research Labs), sodium cholate (Sigma), trimethyl phosphite (Fluka Chemicals).

Row | SMILES | IC50 [nM] | h15LO, value given as bare % [%]
1 | COc1ccc(C(=O)Nc2ccccc2)cc1NCc1cccc2ccccc12 [Example 217, 4-Methoxy-3-[(naphthalen-1-ylmethyl)-amino]-N-phenyl-benzamide] | 129 | –
2 | COc1ccc(C(=O)Nc2ccccc2)cc1NS(=O)(=O)c1ccc(C(=O)O)cc1 [Example 183, 4-(2-Methoxy-5-phenylcarbamoyl-phenylsulfamoyl)-benzoic Acid] | 293 | –
3 | O=C(Nc1ccc(F)cc1)c1ccc(OC(F)(F)F)c(Nc2cccc(C(F)(F)F)c2)c1 [Example 159, 4-Trifluoromethoxy-3-(3-trifluoromethyl-phenylamino)-N-(4-fluoro-phenyl)-benzamide] | – | 44.58
4 | CCOC(=O)c1cccc(NC(=O)c2ccc(OC)c(N)c2)c1 [Example 148, 3-(3-Amino-4-methoxy-benzoylamino)-benzoic Acid Ethyl Ester] | 613 | –
5 | COc1ccc(NC(=O)c2ccc(F)c(F)c2)cc1NS(=O)(=O)c1cccc(N)c1 [Example 198, 3,4-Difluoro-N-[4-methoxy-3-(3-amino-benzenesulfonylamino)-phenyl]-benzamide] | – | 97.77
6 | COc1ccc(NC(=O)c2ccc(F)c(F)c2)cc1NS(=O)(=O)c1ccc([N+](=O)[O-])cc1 [Example 202, 3,4-Difluoro-N-[4-methoxy-3-(4-nitro-benzenesulfonylamino)-phenyl]-benzamide] | – | 93.85
7 | O=C(Nc1ccccc1)c1cccc(Nc2cc(Cl)cc(Cl)c2)c1 [Example 26, 3-(3,5-Dichloro-phenylamino)-N-phenyl-benzamide] | 1600 | –
8 | CCCCc1ccc(CNc2cc(C(=O)Nc3ccccc3)ccc2OC)cc1 [Example 239, 3-(4-Butyl-benzylamino)-4-methoxy-N-phenyl-benzamide] | – | 58.44
9 | COc1ccc(C(=O)Nc2ccc(F)c(F)c2)cc1NCc1cccc(F)c1 [Example 212, 3-(3-Fluoro-benzylamino)-4-methoxy-N-(3,4-difluoro-phenyl)-benzamide] | 69 | –
10 | COc1ccc(C(=O)OCc2ccccc2)cc1NC(=S)Nc1cc(Cl)cc(Cl)c1 [Example 176, 3-[3-(3,5-Dichloro-phenyl)-thioureido]-4-methoxy-benzoic Acid Benzyl Ester] | 800 | –
11 | O=C(Nc1ccccc1)c1ccc(OC(F)(F)F)c(Nc2cccc(C(F)(F)F)c2)c1 [Example 158, 4-Trifluoromethoxy-3-(3-trifluoromethyl-phenylamino)-N-phenyl-benzamide] | – | 48.28
12 | COc1ccc(C(=O)Nc2ccccc2)cc1NS(=O)(=O)c1cccc(C#N)c1 [Example 195, 3-(3-Cyano-benzenesulfonylamino)-4-methoxy-N-phenyl-benzamide] | – | 93.07
13 | COc1ccc(C(=O)Nc2ccccc2)cc1NCc1cccc([N+](=O)[O-])c1 [Example 215, 4-Methoxy-3-(3-nitro-benzylamino)-N-phenyl-benzamide] | 110 | –
14 | COC(=O)c1cccc(NC(=O)c2ccc(OC)c(Nc3cccc(C(F)(F)F)c3)c2)c1 [Example 156, 3-[4-Methoxy-3-(3-trifluoromethyl-phenylamino)-benzoylamino]-benzoic Acid Methyl Ester] | – | 90.33
15 | COc1ccc(C(=O)Nc2ccc(Cl)c(Cl)c2)cc1Nc1cccc(C(F)(F)F)c1 [Example 47, 4-Methoxy-3-(3-trifluoromethyl-phenylamino)-N-(3,4-dichlorophenyl)-benzamide] | 100 | –
16 | COc1ccc(C(=O)Nc2ccc(Cl)c(Cl)c2)cc1NCc1cccc(F)c1 [Example 240, 3-(3-Fluoro-benzylamino)-4-methoxy-N-(3,4-dichloro-phenyl)-benzamide] | – | 58.09
17 | COc1ccc(C(=O)Nc2ccccc2)cc1NCc1cc(F)cc(F)c1 [Example 267, 4-Methoxy-3-(3,5-difluoro-benzylamino)-N-phenyl-benzamide] | 198 | –
18 | COc1ccc(NC(=O)c2ccc(Cl)c(Cl)c2)cc1NCc1cccs1 [Example 264, 3,4-Dichloro-N-{4-methoxy-3-[(thiophen-2-ylmethyl)-amino]-phenyl}-benzamide] | 37 | –

Row | SMILES | IC50 [nM] | h15LO, value given as bare % [%]
19 | CCN(CC)c1ccc(CNc2cc(C(=O)Nc3ccc(F)c(F)c3)ccc2OC)cc1 [Example 226, 3-(4-Diethylamino-benzylamino)-4-methoxy-N-(3,4-difluoro-phenyl)-benzamide] | – | 96.21
20 | COc1ccc(C(=O)Nc2ccccc2)cc1NCc1cccc(F)c1F [Example 219, 3-(2,3-Difluoro-benzylamino)-4-methoxy-N-phenyl-benzamide] | 166 | –
21 | COc1ccc(C(=O)Nc2ccccc2)cc1NCc1cc(C)cc(C)c1 [Example 218, 4-Methoxy-3-(3,5-dimethyl-benzylamino)-N-phenyl-benzamide] | 161 | –
22 | COc1ccc(C(=O)Nc2ccccc2)cc1NS(=O)(=O)C(C)C [Example 182, 3-(1-Methylethyl-1-sulfonylamino)-4-methoxy-N-phenyl-benzamide] | 232 | –
23 | COc1ccc(NC(=O)c2ccc(F)c(F)c2)cc1NC(=S)Nc1cccc(C(=O)O)c1 [Example 169, 3-{3-[5-(3,4-Difluoro-benzoylamino)-2-methoxy-phenyl]-thioureido}-benzoic Acid] | 246 | –
24 | COc1ccc(C(=O)Nc2ccccc2)cc1NCc1ccc2c(c1)OCCO2 [Example 271] | 302 | –
25 | COc1ccc(C(=O)Nc2cccnc2)cc1NCc1cccs1 [Example 262, 4-Methoxy-3-[(thiophen-2-ylmethyl)-amino]-N-pyridin-3-yl-benzamide] | – | 67.58
26 | COC(=O)c1ccc(CNc2cc(C(=O)Nc3ccccc3)ccc2OC)cc1 [Example 221, 4-[(2-Methoxy-5-phenylcarbamoyl-phenylamino)-methyl]-benzoic Acid Methyl Ester] | 551 | –
27 | COc1ccc(C(=O)Nc2ccc(F)c(F)c2)cc1NS(=O)(=O)c1cccc(N)c1 [Example 185, 3-(3-Amino-benzenesulfonylamino)-4-methoxy-N-(3,4-difluoro-phenyl)-benzamide] | – | 99.71
28 | COc1ccc(NC(=O)c2ccc(F)c(F)c2)cc1NCc1cccc(C(=O)O)c1 [Example 246, 3-{[5-(3,4-Difluoro-benzoylamino)-2-methoxy-phenylandno]-methyl}-benzoic Acid] | – | 59.75
29 | COc1ccc(S(=O)(=O)Nc2cc(NC(=O)c3ccc(Cl)c(Cl)c3)ccc2OC)cc1 [Example 196, 3,4-Dichloro-N-[4-methoxy-3-(4-methoxy-benzenesulfonylamino)-phenyl]-benzamide] | 33 | –
30 | COc1ccc(NC(=O)c2ccc(F)c(F)c2)cc1N [Example 150, 3,4-Difluoro-N-(3-amino-4-methoxy-phenyl)-benzamide] | 205 | –
31 | COc1ccc(C(=O)Nc2ccc(F)c(F)c2)cc1NCc1ccc(C(=O)O)cc1 [Example 234, 4-{[5-(3,4-Difluoro-phenylcarbamoyl)-2-methoxy-phenylalino]-methyl}-benzoic Acid] | – | 71.56
32 | COc1ccc(NC(=O)c2ccc(F)c(F)c2)cc1NS(=O)(=O)c1cccc(C#N)c1 [Example 205, 3,4-Difluoro-N-[3-(3-cyano-benzenesulfonylamino)-4-methoxy-phenyl]-benzamide] | – | 86.96
33 | COc1ccc(C(=O)Nc2ccccc2)cc1NCc1cccc(F)c1 [Example 214, 4-Methoxy-3-(3-fluoro-benzylamino)-N-phenyl-benzamide] | 89 | –
34 | CCCCCCCCCCCCCCCCCCS(=O)(=O)Nc1cc(C(=O)Nc2ccccc2)ccc1OC [Example 184, 3-(Octadecane-1-sulfonylamino)-4-methoxy-N-phenyl-benzamide] | 732 | –
35 | COc1ccc(C(=O)Nc2ccc(F)c(F)c2)cc1NCc1cccc(O)c1 [Example 210, 3-(3-Hydroxy-benzylamino)-4-methoxy-N-(3,4-difluoro-phenyl)-benzamide] | 24 | –
36 | COc1ccc(C(=O)Nc2ccccc2)cc1NCc1ccccc1F [Example 270, 4-Methoxy-3-(2-fluoro-benzylamino)-N-phenyl-benzamide] | 241 | –

Reference: patent US6528528B2 (Warner-Lambert Company, priority 1997, dated 2003)
